System: gut microbiota from cecum of LDLr−/− mice
Test: in vitro en masse screening assay (cecum culture, 16S rRNA sequencing)
Type: cell-based
Procedure: We have established the following in vitro compound screening protocol for en masse gut microbiome remodeling. We obtain fresh gut microbiome content from LDLr^-/- mice conditioned for at least two weeks on WD by surgically removing cecum under anaerobic conditions. These samples are then mixed with growth media, distributed in 96-well plates, and incubated overnight in the presence of the test peptides. The activity and selectivity of each peptide for remodeling the gut microbiota community was assessed en masse by 16S rRNA sequencing of each well. A number of challenges had to be addressed in developing this protocol, including inoculum handling, choice of growth media, assay duration, etc. Our current assay culture condition maintains 50 bacterial genera (overnight culture), which is fairly representative of the 67 genera found in the uncultured community (Table 2). We used a distance scoring algorithm for a more refined compound selection, in which peptides that remodel the microbiota community most completely from the dysfunctional state (WD fed) toward the functional state (CHD fed) are scored higher. Briefly, we first eliminate cyclic D,L-α-peptides that have broad-spectrum antibacterial activity (inhibit >95% of growth of ≥25% of species in the community). The remaining compounds are then ranked based on how well they suppressed the bacterial species that grew in abundance in WD-fed mice. […] Among these, 40 genera decreased while 14 genera increased in abundance by WD feeding. Within the increased 11 genera, there were 19 bacterial species that were also present in our in vitro culture system. Accordingly, compounds were scored highly when they reduced the levels of 19 bacterial species (lowest summed differences in relative abundance) that were increased by WD feeding to be more similar to their levels in a CHD-fed microbiome (see Table 3 for peptide ranking). Based on these analyses, we chose two peptides for further in vivo validation and efficacy studies: the cationic peptide 1, […] NO:1), and the neutral peptide 11, […] NO:11), which ranked high within their respective peptide clusters. In vitro cecum culture and peptide screening. We screened a number of parameters to optimize the in vitro culture condition for maximal bacterial diversity in liquid culture, including a survey of several different growth media, dilution factors for plate inoculation, and incubation times; further details of the development of this in vitro screen will be reported elsewhere. Female LDLr^-/- mice (8-10 weeks of age) were fed a WD for two weeks. Cecum harvest and all assay steps were performed under anaerobic conditions (Coy Laboratory anaerobic chamber). Cecum contents from three mice were pooled for the assay to provide enough material and to minimize the individual variation in gut microbiome. Cecum contents were suspended in PBS (1.5 ml PBS per 100 mg of cecum content). The mixture was vortexed for 5 min and the supernatant was transferred to a new tube. The cecum content mixture was further diluted in Chopped Meat Carbohydrate Broth (BD 297307) for in vitro peptide screening. […] The concentration of peptide stock in DMSO was calculated based on A280 measurement. For each peptide, an initial 20 mM stock was made in DMSO and diluted to 1 mM in 10% sucrose. From that, a 0.64 mM peptide dilution in 10% sucrose was prepared, and each peptide was further diluted into the assay for peptide screening at two concentrations (64 μM and 16 μM). Bacterial DNA was harvested after 24-hour peptide treatment and isolated with Microbial DNA isolation kit (Mo Bio) following the manufacturer's instructions. 16S rRNA gene sequencing and processing. PCR amplicons of the V3-V4 16S rRNA region were amplified and sequenced using an Illumina MiSeq platform. […]

[1] = ranking in remodeling WD gut microbiota toward CHD microbiota composition

Compound	ranked distance to chow [1]	other results
O=C(N[C@H](CO)[C@H](O)c1ccc([N+](=O)[O-])cc1)C(Cl)Cl [Chm, chloramphenicol, reference compound]		ranked distance to chow (Chm- 2 μg): 4; ranked distance to chow (Chm- 8 μg): 24
c[FwHlYoHq]	18	
c[LlWhQk]	5	
c[WlLlKkKs] [WllLlKkKs]	20	
c[WlWlWkSk]	1	
c[WwLlHsKk	3	
c[WwQoHdKt]	15	
c[YlWyKhAe]	23	
c[YlYlYkSo]	13	
c[YwElYsKq]	17	
c[fWwYqHhQ]	25	
c[lFlAlKhK]	8	
c[lLwHoK]	7	
c[wFkSkSkS]	19	
c[wLeLwKsK]	9	
c[wLfKwKkK]	6	
c[wLhLwKrK]	11	
c[wLlEeKkN]	21	
c[wLlWkKkS]	10	
c[wLwSeQeO] [wLwSeQsO]	16	
c[wLwSeQhK]	22	
c[wWwKsKsK]	12	

— patent US20220040255A1, “CHEMOTHERAPEUTIC REMODELING OF THE GUT MICROBIOME” (THE SCRIPPS RESEARCH INSTITUTE, priority 2018, published 2022)
